System: HeLa-Kb-A3-47 cells
Assay: Cell-surface HLA-A3 level after transfection with ER targeted precursors
Format: cell-based
Conditions: GAP-A3 staining (Figure 7B)

RVCEKMALY [R-Y]
Surface expression of HLA-A3 after ER targeted peptide: increased the surface expression of HLA-A3

Source: publication PMC2855122 (Journal of immunology (Baltimore, Md. : 1950), 2009)
